The record followed here is patent US12077503B2, “Substituted cyclic amides and their use as herbicides” (FMC CORPORATION, priority 2015, dated 2024).

Common to all, as to assay: Test G Pre-Emergence Protocol
What all share (format): in vivo

For test [1], the system named is barnyardgrass (Echinochloa crus-galli). The note with it: Echinochloa crus-galli, pre-emergence, 312 h, evaluated after 13 days; for pest or weed control at 15.625 g/ha: 15.625 g ai/ha, read-out: Barnyard grass damage rating (100=total damage to plant; 0=no damage to plant); for pest or weed control at 62.5 g/ha: 62.5 g ai/ha, 100=total damage to plant, 0=no damage to plant, read-out: plant damage rating, Barnyardgrass; for pest or weed control at 250 g/ha: 250 g ai/ha, read-out: Barnyardgrass damage rating (100=total damage to plant; 0=no damage to plant). The procedure:
(§1) Seeds of corn (Zea mays), giant foxtail (Setaria faberi), barnyardgrass (Echinochloa crus-galli), ivy-leaved morning glory (Ipomoea hederacea), redroot pigweed (Amaranthus retroflexus) and velvetleaf (Abutilon theophrasti) were sown in standard soil in pots. After cultivation for one day under controlled conditions in a glasshouse (at 24/16° C., day/night; 14 hours light; 65% humidity), the plants were sprayed with an aqueous spray solution derived from the formulation of the technical active ingredient in acetone/water (50:50) solution containing 0.5% Tween 20 (polyoxyethylene sorbitan monolaurate, CAS RN 9005-64-5) to give a final dose of 15.625, 62.5 or 250 g/ha of test compound.
(§2) The test plants were then grown on under controlled conditions in a glasshouse (at 24/16° C., day/night; 14 hours light; 65% humidity) and watered twice daily. After 13 days the test was evaluated (100=total damage to plant; 0=no damage to plant). A dash (-) means no test result.

The test system of test [2] is velvetleaf (Abutilon theophrasti). The note with it: Abutilon theophrasti, pre-emergence, 312 h, evaluated after 13 days; for pest or weed control at 15.625 g/ha: 15.625 g ai/ha; for pest or weed control at 15.625 g/ha / pest or weed control at 250 g/ha: read-out: Velvetleaf damage rating (100=total damage to plant; 0=no damage to plant); for pest or weed control at 62.5 g/ha: 62.5 g ai/ha, 100=total damage to plant, 0=no damage to plant, read-out: plant damage rating, Velvetleaf; for pest or weed control at 250 g/ha: 250 g ai/ha. The procedure:
as §1, §2

Test [3] has as its system giant foxtail (Setaria faberi). The note with it: Setaria faberi, pre-emergence, 312 h, evaluated after 13 days; for pest or weed control at 15.625 g/ha: 15.625 g ai/ha; for pest or weed control at 15.625 g/ha / pest or weed control at 250 g/ha: read-out: Foxtail, Giant damage rating (100=total damage to plant; 0=no damage to plant); for pest or weed control at 62.5 g/ha: 62.5 g ai/ha, 100=total damage to plant, 0=no damage to plant, read-out: plant damage rating, Foxtail, Giant; for pest or weed control at 250 g/ha: 250 g ai/ha. The procedure: as §1, §2

For test [4], the system named is redroot pigweed (Amaranthus retroflexus). The note with it: Amaranthus retroflexus, pre-emergence, 312 h, evaluated after 13 days; for pest or weed control at 15.625 g/ha: 15.625 g ai/ha; for pest or weed control at 15.625 g/ha / pest or weed control at 250 g/ha: read-out: Pigweed, Redroot damage rating (100=total damage to plant; 0=no damage to plant); for pest or weed control at 62.5 g/ha: 62.5 g ai/ha, 100=total damage to plant, 0=no damage to plant, read-out: plant damage rating, Pigweed, Redroot; for pest or weed control at 250 g/ha: 250 g ai/ha. The procedure:
as §1, §2

The next test concerns corn (Zea mays). The note with it: Zea mays, pre-emergence, 312 h, evaluated after 13 days; for plant injury at 15.625 g/ha: 15.625 g ai/ha; for plant injury at 15.625 g/ha / plant injury at 250 g/ha: read-out: Corn damage rating (100=total damage to plant; 0=no damage to plant); for plant injury at 62.5 g/ha: 62.5 g ai/ha, 100=total damage to plant, 0=no damage to plant, read-out: plant damage rating, Corn; for plant injury at 250 g/ha: 250 g ai/ha. The procedure: as §1, §2

Test [5] deals with ivy-leaved morning glory (Ipomoea hederacea). The following applies: Ipomoea, pre-emergence, 312 h, evaluated after 13 days; for pest or weed control at 15.625 g/ha: 15.625 g ai/ha, read-out: Morning-glory, Ivy-leaved damage rating (100=total damage to plant; 0=no damage to plant); for pest or weed control at 62.5 g/ha: 62.5 g ai/ha, 100=total damage to plant, 0=no damage to plant, read-out: plant damage rating, Morningglory, Ivy-leaved; for pest or weed control at 250 g/ha: 250 g ai/ha, read-out: Morningglory, Ivy-leaved damage rating (100=total damage to plant; 0=no damage to plant). The procedure:
as §1, §2

With `Cc1ccc([C@H]2CN(C)C(=O)[C@@H]2C(=O)Nc2cccnc2F)cc1` [Compound 1398], in test [1], the pest or weed control at 15.625 g/ha came out at 80%, the pest or weed control at 62.5 g/ha was 90% and the pest or weed control at 250 g/ha came out at 90%. Also, in test [2], the pest or weed control at 15.625 g/ha worked out at 0%, the pest or weed control at 62.5 g/ha amounted to 60% and the pest or weed control at 250 g/ha stood at 80%. For the same compound, in test [3], the pest or weed control at 15.625 g/ha worked out at 90%, the pest or weed control at 62.5 g/ha came out at 90% and the pest or weed control at 250 g/ha was found to be 90%. Also, in test [4], the pest or weed control at 15.625 g/ha came to 20%, the pest or weed control at 62.5 g/ha came out at 60% and the pest or weed control at 250 g/ha was 80%. For the same compound, in the test on corn (Zea mays), the plant injury at 15.625 g/ha was 20%, the plant injury at 62.5 g/ha is 80% and the plant injury at 250 g/ha was found to be 90%. In test [5], the pest or weed control at 15.625 g/ha worked out at 0%, the pest or weed control at 62.5 g/ha is 60% and the pest or weed control at 250 g/ha came to 80%.
As for `Cc1ccc([C@H]2CN(C)C(=O)[C@@H]2C(=O)Nc2ccc(F)nc2F)cc1` [Compound 1402], in test [1], the pest or weed control at 15.625 g/ha turned out to be 80%, the pest or weed control at 62.5 g/ha was 90% and the pest or weed control at 250 g/ha is 90%. In test [2], the pest or weed control at 15.625 g/ha worked out at 0%, the pest or weed control at 62.5 g/ha turned out to be 70% and the pest or weed control at 250 g/ha was found to be 80%. In test [3], the pest or weed control at 15.625 g/ha amounted to 90%, the pest or weed control at 62.5 g/ha is 90% and the pest or weed control at 250 g/ha turned out to be 90%. In test [4], the pest or weed control at 15.625 g/ha came to 0%, the pest or weed control at 62.5 g/ha was determined as 80% and the pest or weed control at 250 g/ha is 80%. Moreover, in the test with corn (Zea mays), the plant injury at 15.625 g/ha is 60%, the plant injury at 62.5 g/ha stood at 80% and the plant injury at 250 g/ha was determined as 90%. For the same compound, in test [5], the pest or weed control at 15.625 g/ha was 40%, the pest or weed control at 62.5 g/ha was 70% and the pest or weed control at 250 g/ha was found to be 80%.
